This is an account of results in ChEMBL document CHEMBL3997770, “An overview of the binding models of FGFR tyrosine kinases in complex with small molecule inhibitors” (Eur J Med Chem, 2017).

For assay [1], the system named is SNU-16. Nature of the assay: cells. The settings on record: Homo sapiens, SNU-16, 72 h.
Assay [2] concerns the target T1, Fibroblast growth factor receptor 1 (Homo sapiens, UniProt P11362). Nature of the assay: Inhibition of FGFR1 kinase domain (unknown origin).
The target in assay [3] is Fibroblast growth factor receptor 1 (Mus musculus, UniProt P16092). Nature of the assay: Inhibition of FGF induced FGFR1 autophosphorylation in mouse NIH 3T3 cells preincubated for 5 mins followed by FGF-stimulation for 5 mins in presence of [gamma-32P]ATP by SDS-PAGE based autoradiography. In kind it is cell-based.
Assay [4] concerns the target T2, Fibroblast growth factor receptor 4 (Homo sapiens, UniProt P22455). As to the kind of experiment: Inhibition of human N-terminal GST-tagged FGFR4 cytoplasmic domain (460 to 802 end residues) expressed in baculovirus expression system using CSKtide as substrate after 90 mins.
Assay [5] addresses T1, Fibroblast growth factor receptor 1. As to the kind of experiment: Inhibition of recombinant His6-tagged FGFR1 (unknown origin) expressed in Escherichia coli BL21(DE3)-RILP using peptidic substrate by ELISA. On the technique in general: ELISA stands for enzyme-linked immunosorbent assay.
For assay [6], the target named is T3, Fibroblast growth factor receptor 2 (Homo sapiens, UniProt P21802). Nature of the assay: Inhibition of recombinant His6-tagged FGFR2 (unknown origin) expressed in Escherichia coli BL21(DE3)-RILP using peptidic substrate by ELISA.
Assay [7] has as its target Epidermal growth factor receptor (Homo sapiens, UniProt P00533, L858R). Nature of the assay: Inhibition of EGFR L858R mutant (unknown origin).
The target in assay [8] is T1, Fibroblast growth factor receptor 1. As to the kind of experiment: Inhibition of FGFR1 (unknown origin).
Assay [9] has as its target Fibroblast growth factor receptor 2 (Homo sapiens, UniProt P21802, V564M). As to the kind of experiment: Inhibition of FGFR2 V564M mutant (unknown origin).
Assay [10] deals with Fibroblast growth factor receptor 3 (Homo sapiens, UniProt P22607). As to the kind of experiment: Inhibition of FGFR3 (unknown origin).
In assay [11] the target is T3, Fibroblast growth factor receptor 2. Nature of the assay: Inhibition of FGFR2 (unknown origin).
Assay [12] addresses T2, Fibroblast growth factor receptor 4. Nature of the assay: Inhibition of FGFR4 (unknown origin).

As a reminder, the IC50 is the point on the concentration scale where inhibition reaches its midpoint. One may read the EC50 as the concentration needed to bring the measured effect to its halfway point.

T2 sequence (P22455 whole entry, the tested form may be a part): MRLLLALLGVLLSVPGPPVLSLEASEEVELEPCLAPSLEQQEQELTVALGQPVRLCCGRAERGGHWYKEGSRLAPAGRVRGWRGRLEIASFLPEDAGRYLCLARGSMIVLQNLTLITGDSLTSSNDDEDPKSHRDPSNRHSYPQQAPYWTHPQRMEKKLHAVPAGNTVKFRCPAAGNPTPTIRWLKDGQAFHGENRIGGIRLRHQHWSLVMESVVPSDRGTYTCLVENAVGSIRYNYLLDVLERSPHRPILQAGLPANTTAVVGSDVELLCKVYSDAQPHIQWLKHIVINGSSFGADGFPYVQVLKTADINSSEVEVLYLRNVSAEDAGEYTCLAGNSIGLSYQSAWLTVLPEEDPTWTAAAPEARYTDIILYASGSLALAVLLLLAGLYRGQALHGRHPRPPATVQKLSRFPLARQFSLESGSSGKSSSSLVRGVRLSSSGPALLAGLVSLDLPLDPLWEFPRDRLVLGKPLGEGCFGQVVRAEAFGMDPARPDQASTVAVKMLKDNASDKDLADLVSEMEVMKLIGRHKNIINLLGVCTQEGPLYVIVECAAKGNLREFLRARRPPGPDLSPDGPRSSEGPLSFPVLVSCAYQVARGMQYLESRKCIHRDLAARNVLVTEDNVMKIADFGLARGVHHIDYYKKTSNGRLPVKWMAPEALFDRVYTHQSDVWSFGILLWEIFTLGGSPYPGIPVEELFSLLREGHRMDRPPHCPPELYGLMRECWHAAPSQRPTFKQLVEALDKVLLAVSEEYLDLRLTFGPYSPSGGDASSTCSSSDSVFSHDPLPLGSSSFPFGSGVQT
T1 sequence (P11362 whole entry, the tested form may be a part): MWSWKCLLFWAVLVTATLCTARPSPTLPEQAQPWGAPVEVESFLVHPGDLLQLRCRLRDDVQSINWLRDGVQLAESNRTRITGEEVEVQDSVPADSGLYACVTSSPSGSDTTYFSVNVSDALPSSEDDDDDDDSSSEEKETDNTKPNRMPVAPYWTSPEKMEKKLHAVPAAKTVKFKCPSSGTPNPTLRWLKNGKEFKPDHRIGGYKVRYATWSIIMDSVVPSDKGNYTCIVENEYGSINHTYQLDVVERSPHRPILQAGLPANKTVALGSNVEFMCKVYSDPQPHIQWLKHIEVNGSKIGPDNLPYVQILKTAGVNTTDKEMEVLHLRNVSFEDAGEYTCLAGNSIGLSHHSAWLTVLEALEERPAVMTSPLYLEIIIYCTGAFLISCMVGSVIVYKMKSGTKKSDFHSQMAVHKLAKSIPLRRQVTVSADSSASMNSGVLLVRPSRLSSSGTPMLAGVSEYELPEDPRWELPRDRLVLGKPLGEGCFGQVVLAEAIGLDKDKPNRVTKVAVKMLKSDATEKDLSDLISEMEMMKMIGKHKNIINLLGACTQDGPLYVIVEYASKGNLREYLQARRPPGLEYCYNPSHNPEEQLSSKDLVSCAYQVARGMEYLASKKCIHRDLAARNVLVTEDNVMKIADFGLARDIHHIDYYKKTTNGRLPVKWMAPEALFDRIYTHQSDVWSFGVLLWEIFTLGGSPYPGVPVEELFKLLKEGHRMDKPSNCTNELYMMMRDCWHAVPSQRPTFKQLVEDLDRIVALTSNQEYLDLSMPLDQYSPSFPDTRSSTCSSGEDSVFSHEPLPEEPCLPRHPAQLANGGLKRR
T3 sequence (P21802 whole entry): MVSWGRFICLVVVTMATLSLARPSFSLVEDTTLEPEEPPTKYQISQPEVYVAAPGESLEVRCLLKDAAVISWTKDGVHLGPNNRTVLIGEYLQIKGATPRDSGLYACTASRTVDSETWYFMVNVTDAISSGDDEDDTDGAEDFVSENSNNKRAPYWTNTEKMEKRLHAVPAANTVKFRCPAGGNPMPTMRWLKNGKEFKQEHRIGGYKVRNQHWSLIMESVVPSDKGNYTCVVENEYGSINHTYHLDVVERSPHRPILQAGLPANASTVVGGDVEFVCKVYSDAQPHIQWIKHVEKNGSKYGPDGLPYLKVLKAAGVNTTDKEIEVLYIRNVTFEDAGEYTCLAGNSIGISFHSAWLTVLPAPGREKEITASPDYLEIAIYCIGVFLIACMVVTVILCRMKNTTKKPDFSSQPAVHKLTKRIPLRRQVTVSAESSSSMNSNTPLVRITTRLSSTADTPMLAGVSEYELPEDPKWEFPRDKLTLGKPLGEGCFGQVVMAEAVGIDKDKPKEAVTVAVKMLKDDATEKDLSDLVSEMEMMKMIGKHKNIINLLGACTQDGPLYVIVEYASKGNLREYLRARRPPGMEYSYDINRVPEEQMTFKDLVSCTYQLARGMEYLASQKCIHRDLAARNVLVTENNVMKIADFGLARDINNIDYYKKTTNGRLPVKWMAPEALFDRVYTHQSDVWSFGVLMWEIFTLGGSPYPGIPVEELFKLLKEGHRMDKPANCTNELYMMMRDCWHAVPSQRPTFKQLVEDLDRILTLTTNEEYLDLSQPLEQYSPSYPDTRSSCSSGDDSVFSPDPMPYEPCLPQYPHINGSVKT
Chain of Fibroblast growth factor receptor 1 (Mus musculus, UniProt P16092) (P16092 whole entry, the tested form may be a part): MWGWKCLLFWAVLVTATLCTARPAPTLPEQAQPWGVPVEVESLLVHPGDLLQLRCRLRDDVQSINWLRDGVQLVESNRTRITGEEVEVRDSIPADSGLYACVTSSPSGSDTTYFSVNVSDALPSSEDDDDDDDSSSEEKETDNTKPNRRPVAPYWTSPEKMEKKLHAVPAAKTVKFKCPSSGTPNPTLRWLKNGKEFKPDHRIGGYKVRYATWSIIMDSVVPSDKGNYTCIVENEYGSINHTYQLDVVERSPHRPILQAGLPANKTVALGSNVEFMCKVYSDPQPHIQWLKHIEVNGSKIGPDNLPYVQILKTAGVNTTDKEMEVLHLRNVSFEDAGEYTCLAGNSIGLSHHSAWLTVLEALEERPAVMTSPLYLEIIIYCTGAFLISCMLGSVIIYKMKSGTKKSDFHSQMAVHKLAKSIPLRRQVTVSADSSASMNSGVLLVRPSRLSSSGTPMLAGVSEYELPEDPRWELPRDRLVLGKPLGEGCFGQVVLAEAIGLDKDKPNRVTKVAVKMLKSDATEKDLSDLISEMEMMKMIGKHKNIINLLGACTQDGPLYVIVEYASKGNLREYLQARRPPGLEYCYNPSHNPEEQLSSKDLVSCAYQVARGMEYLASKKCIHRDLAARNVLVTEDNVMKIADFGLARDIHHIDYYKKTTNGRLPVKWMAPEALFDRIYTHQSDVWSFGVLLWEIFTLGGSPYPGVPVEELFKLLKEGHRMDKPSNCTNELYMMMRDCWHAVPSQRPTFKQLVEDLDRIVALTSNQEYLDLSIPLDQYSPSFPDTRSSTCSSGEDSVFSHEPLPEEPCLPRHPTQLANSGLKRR
Chain of Fibroblast growth factor receptor 2 (Homo sapiens, UniProt P21802, V564M) (P21802 22-821 V564M limits assumed): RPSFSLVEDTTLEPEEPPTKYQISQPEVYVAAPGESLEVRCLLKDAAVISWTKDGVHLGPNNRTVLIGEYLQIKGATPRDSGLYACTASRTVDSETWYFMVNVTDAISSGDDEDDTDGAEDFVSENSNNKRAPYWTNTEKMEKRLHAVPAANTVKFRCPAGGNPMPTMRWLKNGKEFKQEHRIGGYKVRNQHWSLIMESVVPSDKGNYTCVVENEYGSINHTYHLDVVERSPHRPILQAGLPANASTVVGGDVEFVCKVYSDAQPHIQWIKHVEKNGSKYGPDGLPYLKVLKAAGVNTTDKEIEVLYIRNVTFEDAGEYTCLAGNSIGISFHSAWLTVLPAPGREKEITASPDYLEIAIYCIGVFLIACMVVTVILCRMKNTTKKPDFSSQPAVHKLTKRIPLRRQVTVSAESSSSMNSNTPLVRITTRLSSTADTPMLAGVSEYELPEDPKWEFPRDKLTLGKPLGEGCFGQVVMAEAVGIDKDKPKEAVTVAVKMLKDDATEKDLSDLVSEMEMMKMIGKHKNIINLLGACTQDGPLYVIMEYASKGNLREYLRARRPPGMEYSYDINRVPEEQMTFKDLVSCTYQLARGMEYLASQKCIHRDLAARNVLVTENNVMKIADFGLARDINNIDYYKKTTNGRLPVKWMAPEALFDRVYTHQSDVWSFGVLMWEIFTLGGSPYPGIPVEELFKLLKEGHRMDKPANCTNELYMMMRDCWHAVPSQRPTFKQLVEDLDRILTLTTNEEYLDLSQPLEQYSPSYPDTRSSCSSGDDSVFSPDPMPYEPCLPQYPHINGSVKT
Chain of Fibroblast growth factor receptor 3 (P22607 whole entry): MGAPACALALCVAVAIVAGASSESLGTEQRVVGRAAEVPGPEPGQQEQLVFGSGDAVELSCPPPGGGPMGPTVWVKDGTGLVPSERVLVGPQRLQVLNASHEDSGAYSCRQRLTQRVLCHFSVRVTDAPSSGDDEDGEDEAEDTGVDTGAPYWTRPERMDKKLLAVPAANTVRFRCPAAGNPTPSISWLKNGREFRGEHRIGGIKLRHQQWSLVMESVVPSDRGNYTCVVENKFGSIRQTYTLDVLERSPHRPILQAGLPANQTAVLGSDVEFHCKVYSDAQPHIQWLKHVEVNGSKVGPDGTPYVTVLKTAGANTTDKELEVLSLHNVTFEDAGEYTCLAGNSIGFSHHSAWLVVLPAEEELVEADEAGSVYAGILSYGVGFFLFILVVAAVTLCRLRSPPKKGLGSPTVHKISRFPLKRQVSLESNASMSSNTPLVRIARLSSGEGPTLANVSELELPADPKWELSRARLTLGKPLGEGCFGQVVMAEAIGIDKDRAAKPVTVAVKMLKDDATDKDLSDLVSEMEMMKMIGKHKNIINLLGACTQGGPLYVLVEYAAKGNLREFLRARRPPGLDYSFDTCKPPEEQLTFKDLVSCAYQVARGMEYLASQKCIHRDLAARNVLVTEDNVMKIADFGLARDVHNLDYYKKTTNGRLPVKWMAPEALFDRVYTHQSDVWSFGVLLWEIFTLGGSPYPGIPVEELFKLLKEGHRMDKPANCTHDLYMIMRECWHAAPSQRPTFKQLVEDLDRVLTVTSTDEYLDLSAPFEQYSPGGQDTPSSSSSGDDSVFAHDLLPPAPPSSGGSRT

Consider `CCN1CCN(c2ccc(C(=O)Nc3n[nH]c4cc(-c5cccc(OC)c5F)ccc34)cc2)CC1`, for which the IC50 in [1] is 40.5 nM.
For the compound `Cc1c[nH]c(/C=C2\C(=O)Nc3ccccc32)c1CCC(=O)O`, the concentration for half-maximal inhibition (IC50) in assay [2] and in assay [3] was 10000 to 20000 nM each time.
Turning to `C=CC(N)=O` [ACRYLAMIDE], the IC50 in assay [4] was 938 nM.
Consider `O=CN1CCN(c2ccc(/C=C3\C(=O)Nc4ccccc43)cc2)CC1`, for which the IC50 in assay [2] fell in the range of 10000 to 20000 nM; in [3] it was 20000 to 40000 nM.
Turning to `Nc1ncc2c(n1)-c1ccccc1[C@H](c1ccccc1)C2`, the IC50 is 840 nM in assay [5] and 1230 nM in assay [6].
Consider `C=CC(=O)Nc1ccc(CN(C(=O)Nc2c(Cl)c(OC)cc(OC)c2Cl)c2cc(Nc3ccc(N4CCN(C)CC4)cc3)ncn2)cc1`, for which the IC50 in assay [7] is 16.8 nM; in assay [9] it was 64 nM; in assay [10] it was 41 nM; in [11] it was < 1 nM; in assay [12], 22 nM. The compound also came in with an EC50 in [8] of 1 nM.
In turn, `C=CC(=O)Nc1ccc(CN2C(=O)N(c3cc(OC)cc(OC)c3)Cc3cnc(Nc4ccc(N5CCN(C)CC5)cc4)nc32)cc1` came in with an EC50 in [8] of 1 nM. Moreover, the IC50 in assay [9] worked out at 58 nM; in assay [10], 93 nM; in assay [11] it was 4 nM; in [12] it was 32 nM.
In [1], `CCN1CCN(c2ccc(C(=O)Nc3n[nH]c4cc(-c5cccc(OC)c5)ccc34)cc2)CC1` returned an IC50 of 642 nM.
